Measured values from BindingDB's records for doi:10.1016/j.chembiol.2011.12.010 (Boston College, 2012).

Key:
Experiment in all cases: In Vitro Enzyme Assay
[1] = biological target: Dual 3',5'-cyclic-AMP and -GMP phosphodiesterase 11A (Homo sapiens, UniProt Q9HCR9)
[2] = biological target: Dual specificity calcium/calmodulin-dependent 3',5'-cyclic nucleotide phosphodiesterase 1C (Human, UniProt Q14123)
[3] = biological target: High affinity cAMP-specific 3',5'-cyclic phosphodiesterase 7A (Homo sapiens, UniProt Q13946)
[4] = biological target: cGMP-inhibited 3',5'-cyclic phosphodiesterase 3B (Homo sapiens, UniProt Q13370)
Chain of cGMP-inhibited 3',5'-cyclic phosphodiesterase 3B (Q13370 whole entry): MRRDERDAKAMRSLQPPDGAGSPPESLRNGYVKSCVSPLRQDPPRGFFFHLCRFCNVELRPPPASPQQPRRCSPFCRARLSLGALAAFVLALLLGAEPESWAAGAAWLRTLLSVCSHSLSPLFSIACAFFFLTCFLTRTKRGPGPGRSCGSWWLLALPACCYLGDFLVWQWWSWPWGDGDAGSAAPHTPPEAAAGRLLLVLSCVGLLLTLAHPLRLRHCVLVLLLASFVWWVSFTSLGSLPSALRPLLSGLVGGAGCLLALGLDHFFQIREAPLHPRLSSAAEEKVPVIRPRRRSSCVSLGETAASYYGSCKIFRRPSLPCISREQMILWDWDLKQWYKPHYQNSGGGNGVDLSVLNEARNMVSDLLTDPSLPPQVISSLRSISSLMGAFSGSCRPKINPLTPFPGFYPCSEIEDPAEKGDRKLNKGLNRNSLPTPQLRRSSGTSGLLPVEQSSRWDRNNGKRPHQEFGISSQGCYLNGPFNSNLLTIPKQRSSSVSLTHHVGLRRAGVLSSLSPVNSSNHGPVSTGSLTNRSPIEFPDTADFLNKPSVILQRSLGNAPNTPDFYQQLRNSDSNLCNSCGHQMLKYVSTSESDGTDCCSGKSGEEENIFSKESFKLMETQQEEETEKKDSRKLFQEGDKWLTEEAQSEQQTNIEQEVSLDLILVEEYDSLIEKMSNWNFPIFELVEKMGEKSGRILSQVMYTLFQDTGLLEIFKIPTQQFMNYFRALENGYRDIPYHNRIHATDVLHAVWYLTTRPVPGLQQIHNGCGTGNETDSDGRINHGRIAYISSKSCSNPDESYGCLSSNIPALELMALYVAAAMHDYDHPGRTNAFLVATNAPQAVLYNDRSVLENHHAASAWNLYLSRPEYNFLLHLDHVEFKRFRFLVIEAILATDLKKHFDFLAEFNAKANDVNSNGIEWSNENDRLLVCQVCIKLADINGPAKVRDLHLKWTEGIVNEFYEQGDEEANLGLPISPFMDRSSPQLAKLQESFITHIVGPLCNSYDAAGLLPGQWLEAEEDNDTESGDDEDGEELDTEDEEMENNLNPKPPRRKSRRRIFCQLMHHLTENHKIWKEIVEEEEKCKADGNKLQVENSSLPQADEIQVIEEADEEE

[5] = biological target: Cone cGMP-specific 3',5'-cyclic phosphodiesterase subunit alpha' (Homo sapiens, UniProt P51160)
Chain of Cone cGMP-specific 3',5'-cyclic phosphodiesterase subunit alpha' (P51160 whole entry): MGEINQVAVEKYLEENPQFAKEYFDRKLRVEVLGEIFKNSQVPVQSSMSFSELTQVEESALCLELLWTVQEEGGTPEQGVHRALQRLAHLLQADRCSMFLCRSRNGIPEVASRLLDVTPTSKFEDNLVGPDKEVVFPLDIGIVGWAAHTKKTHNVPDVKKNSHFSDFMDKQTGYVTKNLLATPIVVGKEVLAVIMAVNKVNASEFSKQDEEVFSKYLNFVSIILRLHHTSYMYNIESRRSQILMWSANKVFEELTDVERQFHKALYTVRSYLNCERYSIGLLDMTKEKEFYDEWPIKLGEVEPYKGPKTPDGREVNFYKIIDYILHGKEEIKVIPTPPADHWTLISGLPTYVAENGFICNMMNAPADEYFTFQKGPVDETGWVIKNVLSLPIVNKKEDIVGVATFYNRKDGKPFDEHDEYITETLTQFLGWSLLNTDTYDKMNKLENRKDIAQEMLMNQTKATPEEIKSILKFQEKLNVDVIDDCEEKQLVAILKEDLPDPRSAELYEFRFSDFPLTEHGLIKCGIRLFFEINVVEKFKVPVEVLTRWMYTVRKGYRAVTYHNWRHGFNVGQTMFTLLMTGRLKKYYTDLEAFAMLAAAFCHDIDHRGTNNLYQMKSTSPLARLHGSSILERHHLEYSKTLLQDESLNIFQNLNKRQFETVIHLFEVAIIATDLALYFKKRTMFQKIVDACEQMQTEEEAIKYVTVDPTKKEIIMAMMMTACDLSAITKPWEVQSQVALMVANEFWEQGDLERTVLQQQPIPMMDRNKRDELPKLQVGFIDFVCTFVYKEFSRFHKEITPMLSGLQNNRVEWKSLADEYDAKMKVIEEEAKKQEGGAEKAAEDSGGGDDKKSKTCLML

[6] = biological target: T1, cGMP-dependent 3',5'-cyclic phosphodiesterase (Rattus norvegicus, UniProt Q01062)
T1 sequence (Q01062 whole entry): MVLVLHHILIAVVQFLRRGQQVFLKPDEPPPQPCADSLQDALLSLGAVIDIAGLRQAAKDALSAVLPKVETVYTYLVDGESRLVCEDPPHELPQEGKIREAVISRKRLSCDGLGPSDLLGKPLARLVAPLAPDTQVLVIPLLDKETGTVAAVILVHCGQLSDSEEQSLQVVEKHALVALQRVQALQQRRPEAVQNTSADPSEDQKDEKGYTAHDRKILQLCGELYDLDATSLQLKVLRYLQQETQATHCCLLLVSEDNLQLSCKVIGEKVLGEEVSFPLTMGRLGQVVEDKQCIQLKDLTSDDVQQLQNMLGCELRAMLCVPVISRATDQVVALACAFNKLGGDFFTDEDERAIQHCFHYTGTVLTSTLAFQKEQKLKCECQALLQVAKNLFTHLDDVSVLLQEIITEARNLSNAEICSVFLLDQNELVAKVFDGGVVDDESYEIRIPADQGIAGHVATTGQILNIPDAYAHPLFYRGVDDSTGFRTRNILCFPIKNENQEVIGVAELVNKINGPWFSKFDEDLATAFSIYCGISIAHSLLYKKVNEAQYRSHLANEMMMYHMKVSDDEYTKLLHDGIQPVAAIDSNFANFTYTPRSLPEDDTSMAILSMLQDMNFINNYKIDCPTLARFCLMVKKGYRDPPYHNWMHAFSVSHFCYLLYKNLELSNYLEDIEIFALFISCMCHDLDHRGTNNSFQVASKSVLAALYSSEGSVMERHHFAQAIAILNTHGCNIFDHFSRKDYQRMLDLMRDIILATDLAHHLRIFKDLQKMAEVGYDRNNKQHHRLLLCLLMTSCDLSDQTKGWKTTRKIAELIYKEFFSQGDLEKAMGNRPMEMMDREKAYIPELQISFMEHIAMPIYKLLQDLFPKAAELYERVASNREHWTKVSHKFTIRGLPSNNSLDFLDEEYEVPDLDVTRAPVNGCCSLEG

[7] = biological target: cAMP and cAMP-inhibited cGMP 3',5'-cyclic phosphodiesterase 10A (Homo sapiens, UniProt Q9Y233)
Chain of cAMP and cAMP-inhibited cGMP 3',5'-cyclic phosphodiesterase 10A (Q9Y233 whole entry): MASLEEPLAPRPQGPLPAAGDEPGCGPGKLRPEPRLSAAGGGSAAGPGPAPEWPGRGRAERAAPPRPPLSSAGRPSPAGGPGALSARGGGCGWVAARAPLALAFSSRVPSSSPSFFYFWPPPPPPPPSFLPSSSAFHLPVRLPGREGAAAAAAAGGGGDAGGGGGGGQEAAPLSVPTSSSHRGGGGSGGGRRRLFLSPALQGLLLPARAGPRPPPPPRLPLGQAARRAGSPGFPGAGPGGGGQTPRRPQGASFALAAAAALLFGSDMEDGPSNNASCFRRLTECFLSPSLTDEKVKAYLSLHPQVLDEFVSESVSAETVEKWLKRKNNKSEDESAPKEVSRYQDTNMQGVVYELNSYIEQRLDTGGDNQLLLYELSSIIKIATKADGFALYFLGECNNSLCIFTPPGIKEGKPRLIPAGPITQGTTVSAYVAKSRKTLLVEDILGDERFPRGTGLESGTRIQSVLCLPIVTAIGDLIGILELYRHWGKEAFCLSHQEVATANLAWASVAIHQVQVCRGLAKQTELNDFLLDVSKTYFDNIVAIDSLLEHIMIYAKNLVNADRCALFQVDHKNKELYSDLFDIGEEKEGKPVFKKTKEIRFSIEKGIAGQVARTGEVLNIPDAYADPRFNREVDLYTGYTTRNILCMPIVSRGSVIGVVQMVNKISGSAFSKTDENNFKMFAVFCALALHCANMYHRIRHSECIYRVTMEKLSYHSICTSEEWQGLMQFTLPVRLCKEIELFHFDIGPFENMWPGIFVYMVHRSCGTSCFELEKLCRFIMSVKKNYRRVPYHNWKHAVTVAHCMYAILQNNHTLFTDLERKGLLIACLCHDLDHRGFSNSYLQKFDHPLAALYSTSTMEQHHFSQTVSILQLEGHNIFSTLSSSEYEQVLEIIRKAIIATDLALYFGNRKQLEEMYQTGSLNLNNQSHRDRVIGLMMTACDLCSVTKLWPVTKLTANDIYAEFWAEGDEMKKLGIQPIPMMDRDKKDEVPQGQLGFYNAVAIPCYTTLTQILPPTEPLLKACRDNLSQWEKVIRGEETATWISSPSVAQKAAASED

Chain of Dual 3',5'-cyclic-AMP and -GMP phosphodiesterase 11A (Q9HCR9 whole entry): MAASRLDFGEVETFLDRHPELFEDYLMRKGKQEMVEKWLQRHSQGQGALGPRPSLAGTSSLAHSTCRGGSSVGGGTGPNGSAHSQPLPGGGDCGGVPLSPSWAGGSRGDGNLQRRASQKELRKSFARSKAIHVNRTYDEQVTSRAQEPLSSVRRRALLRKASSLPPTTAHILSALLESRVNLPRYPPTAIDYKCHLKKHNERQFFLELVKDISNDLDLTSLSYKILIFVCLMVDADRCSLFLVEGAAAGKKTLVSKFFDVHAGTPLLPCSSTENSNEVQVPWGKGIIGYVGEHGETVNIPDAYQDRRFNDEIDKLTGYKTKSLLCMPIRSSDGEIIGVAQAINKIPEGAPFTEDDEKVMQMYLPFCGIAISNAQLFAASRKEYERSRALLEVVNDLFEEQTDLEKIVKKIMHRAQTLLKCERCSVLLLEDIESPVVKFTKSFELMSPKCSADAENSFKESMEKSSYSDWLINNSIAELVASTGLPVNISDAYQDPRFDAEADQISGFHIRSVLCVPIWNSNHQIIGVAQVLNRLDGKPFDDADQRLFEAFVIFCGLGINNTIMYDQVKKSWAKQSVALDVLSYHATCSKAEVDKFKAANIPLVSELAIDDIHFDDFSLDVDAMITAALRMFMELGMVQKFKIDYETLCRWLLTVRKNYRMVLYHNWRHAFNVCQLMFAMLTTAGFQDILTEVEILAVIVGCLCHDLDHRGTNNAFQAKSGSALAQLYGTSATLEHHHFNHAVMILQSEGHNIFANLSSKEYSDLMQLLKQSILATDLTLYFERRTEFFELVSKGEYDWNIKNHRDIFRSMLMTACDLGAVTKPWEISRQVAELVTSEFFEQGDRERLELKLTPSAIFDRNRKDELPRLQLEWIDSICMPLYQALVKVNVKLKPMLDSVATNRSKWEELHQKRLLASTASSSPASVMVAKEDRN
Chain of Dual specificity calcium/calmodulin-dependent 3',5'-cyclic nucleotide phosphodiesterase 1C (Q14123 whole entry): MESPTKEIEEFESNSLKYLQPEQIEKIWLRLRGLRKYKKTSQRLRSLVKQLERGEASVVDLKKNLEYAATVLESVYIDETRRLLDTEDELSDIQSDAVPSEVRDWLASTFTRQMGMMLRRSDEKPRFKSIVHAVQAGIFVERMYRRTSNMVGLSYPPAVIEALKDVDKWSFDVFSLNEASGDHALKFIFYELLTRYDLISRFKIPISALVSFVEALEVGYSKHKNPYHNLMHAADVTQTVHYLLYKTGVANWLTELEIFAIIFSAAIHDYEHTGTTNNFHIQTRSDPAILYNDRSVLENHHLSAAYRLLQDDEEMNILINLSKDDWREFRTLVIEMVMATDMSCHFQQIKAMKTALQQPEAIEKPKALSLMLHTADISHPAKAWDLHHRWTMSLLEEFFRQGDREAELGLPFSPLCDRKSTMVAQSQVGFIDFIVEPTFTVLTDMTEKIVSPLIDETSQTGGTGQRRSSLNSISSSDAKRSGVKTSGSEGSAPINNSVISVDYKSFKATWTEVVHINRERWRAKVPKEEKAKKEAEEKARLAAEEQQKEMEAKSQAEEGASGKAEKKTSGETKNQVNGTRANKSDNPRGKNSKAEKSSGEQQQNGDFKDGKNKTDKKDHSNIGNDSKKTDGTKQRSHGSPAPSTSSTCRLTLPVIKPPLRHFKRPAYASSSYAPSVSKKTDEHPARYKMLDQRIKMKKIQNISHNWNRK

IC50 [1] [µM] | IC50 [2] [µM] | IC50 [3] [µM] | IC50 [4] [µM] | IC50 [5] [µM] | IC50 [6] [µM] | IC50 [7] [µM] | Compound
7.5 | > 100 | 21.3 | > 100 |  |  |  | CCCSc1nc2c(c(=O)n1-c1ccc(C)cc1)SCC2 [BC11-38-3]
 | > 100 |  | > 100 |  |  |  | CCN(CC)C(=O)c1cc(-c2cccs2)nc2c1c(C)nn2-c1ccccc1C [BC11-15]
 | > 100 |  | > 100 | 51.2 | 18.4 |  | CCC(C)Sc1nc2c(c(=O)n1-c1ccccc1)SCC2 (stereo not given) [BC11-38-2]
2 |  |  |  |  |  |  | COc1ccc2c(c1)sc1nc(=O)n(Cc3ccccc3)c(=O)n12 [US9173884, BC11-19-1]
9.9 | > 100 |  | > 100 |  |  | 5.8 | CCCSc1nc2c(c(=O)n1-c1ccccc1OC)SCC2 [BC11-38-4]
 |  |  | > 100 |  |  |  | CCCCSc1nc2c(c(=O)n1-c1ccccc1)SCC2 [BC11-38-1]
 | > 100 |  | > 100 |  |  |  | Cc1ccccc1Nc1ncnc2c1c(-c1ccccc1)cn2-c1ccc(F)cc1
 | > 100 |  | > 100 |  |  |  | CCCSc1nc2c(c(=O)n1-c1ccccc1)SCC2 [BC11-38]
